Results published in ChEMBL document CHEMBL5046253, “Synthesis and bioevaluation of diaryl urea derivatives as potential antitumor agents for the treatment of human colorectal cancer” (Eur J Med Chem, 2022).

How the values were obtained:
[1] = target: Phosphatidylinositol 4,5-bisphosphate 3-kinase catalytic subunit gamma isoform (Homo sapiens, UniProt P48736); experiment: Inhibition of PI3Kgamma (unknown origin) using PIP2 as substrate in presence of ATP incubated for 60 mins by ADP-glo based luminescence assay
MDA-MB-231 = experiment: Antiproliferative activity against human MDA-MB-231 cells assessed as reduction in cell viability incubated for 48 hrs by MTT assay; assay type: functional, cell-based; settings: MDA-MB-231, 48 h
HCT-116 = experiment: Antiproliferative activity against human HCT-116 cells assessed as reduction in cell viability incubated for 48 hrs by MTT assay; assay type: functional, cell-based; settings: HCT-116, 48 h
[2] = target: Serine/threonine-protein kinase mTOR (Homo sapiens, UniProt P42345); experiment: Inhibition of mTOR (unknown origin) using U-Light-4E-BP1 peptide as a substrate in presence of ATP incubated for 45 mins by Lance ultra assay
HepG2 = experiment: Antiproliferative activity against human HepG2 cells assessed as reduction in cell viability incubated for 48 hrs by MTT assay; assay type: functional, cell-based; settings: HepG2, 48 h
[3] = target: Phosphatidylinositol 4,5-bisphosphate 3-kinase catalytic subunit alpha isoform (Homo sapiens, UniProt P42336); experiment: Inhibition of PI3Kalpha (unknown origin) using PIP2 as substrate in presence of ATP incubated for 60 mins by ADP-glo based luminescence assay
HeLa = experiment: Antiproliferative activity against human HeLa cells assessed as reduction in cell viability incubated for 48 hrs by MTT assay; assay type: functional, cell-based
NCI-H1975 = experiment: Antiproliferative activity against human NCI-H1975 cells harboring EGFR L858R/T790M double mutant assessed as reduction in cell viability incubated for 72 hrs by celltiter-glo assay; assay type: functional, cell-based; settings: NCI-H1975, 72 h
[4] = target: Phosphatidylinositol 4,5-bisphosphate 3-kinase catalytic subunit beta isoform (Homo sapiens, UniProt P42338); experiment: Inhibition of PI3Kbeta (unknown origin) using PIP2 as substrate in presence of ATP incubated for 60 mins by ADP-glo based luminescence assay
[5] = target: T1, Phosphatidylinositol 4,5-bisphosphate 3-kinase catalytic subunit delta isoform (Homo sapiens, UniProt O00329); experiment: Inhibition of PI3Kdelta (unknown origin) using PIP2 as substrate in presence of ATP incubated for 60 mins by ADP-glo based luminescence assay
T1 sequence (O00329 whole entry): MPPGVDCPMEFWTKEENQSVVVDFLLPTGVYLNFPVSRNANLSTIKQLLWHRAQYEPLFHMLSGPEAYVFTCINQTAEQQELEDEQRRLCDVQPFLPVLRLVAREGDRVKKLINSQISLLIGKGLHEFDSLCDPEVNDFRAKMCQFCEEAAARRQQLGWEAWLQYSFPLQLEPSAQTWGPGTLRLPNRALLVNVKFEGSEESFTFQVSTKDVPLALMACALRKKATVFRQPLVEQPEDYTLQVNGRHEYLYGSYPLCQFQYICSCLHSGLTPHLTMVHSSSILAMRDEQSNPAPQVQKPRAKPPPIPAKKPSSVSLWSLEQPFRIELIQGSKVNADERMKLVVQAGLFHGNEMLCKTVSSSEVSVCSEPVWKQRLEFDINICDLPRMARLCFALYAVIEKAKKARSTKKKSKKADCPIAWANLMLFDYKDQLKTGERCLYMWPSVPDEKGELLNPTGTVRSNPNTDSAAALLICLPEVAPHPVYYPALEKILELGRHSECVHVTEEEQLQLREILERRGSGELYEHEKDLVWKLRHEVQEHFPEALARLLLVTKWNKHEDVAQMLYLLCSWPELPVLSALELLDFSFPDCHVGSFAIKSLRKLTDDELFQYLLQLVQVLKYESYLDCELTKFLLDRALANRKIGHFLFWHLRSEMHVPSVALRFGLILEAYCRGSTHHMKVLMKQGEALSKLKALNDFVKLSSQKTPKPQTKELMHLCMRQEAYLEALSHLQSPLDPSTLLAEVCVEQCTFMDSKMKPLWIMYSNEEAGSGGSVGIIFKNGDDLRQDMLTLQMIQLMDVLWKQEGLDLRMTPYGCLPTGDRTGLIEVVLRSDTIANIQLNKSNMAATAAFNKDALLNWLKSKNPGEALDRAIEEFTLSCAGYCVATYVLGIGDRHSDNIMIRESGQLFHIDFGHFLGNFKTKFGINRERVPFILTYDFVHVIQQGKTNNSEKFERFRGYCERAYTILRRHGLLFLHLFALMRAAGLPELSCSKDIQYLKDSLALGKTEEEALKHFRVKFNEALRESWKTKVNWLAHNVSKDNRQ

A-431 = experiment: Antiproliferative activity against human A431 cells harboring wild type EGFR mutant assessed as reduction in cell viability incubated for 72 hrs by celltiter-glo assay; assay type: functional, cell-based; settings: A-431, 72 h
CNE-2 = experiment: Antiproliferative activity against human CNE-2 cells assessed as reduction in cell viability incubated for 48 hrs by MTT assay; assay type: functional, cell-based; settings: CNE-2, 48 h
BaF3 = experiment: Antiproliferative activity against mouse BaF3 cells harboring EGFR L858R/T790M/C797S mutant assessed as reduction in cell viability incubated for 72 hrs by celltiter-glo assay; assay type: toxicity, cell-based; settings: BaF3, 72 h
MCF7 = experiment: Antiproliferative activity against human MCF7 cells assessed as reduction in cell viability incubated for 48 hrs by MTT assay; assay type: functional, cell-based; settings: MCF7, 48 h

Phosphatidylinositol 4,5-bisphosphate 3-kinase catalytic subunit alpha isoform, sequence (P42336 whole entry, canonical isoform): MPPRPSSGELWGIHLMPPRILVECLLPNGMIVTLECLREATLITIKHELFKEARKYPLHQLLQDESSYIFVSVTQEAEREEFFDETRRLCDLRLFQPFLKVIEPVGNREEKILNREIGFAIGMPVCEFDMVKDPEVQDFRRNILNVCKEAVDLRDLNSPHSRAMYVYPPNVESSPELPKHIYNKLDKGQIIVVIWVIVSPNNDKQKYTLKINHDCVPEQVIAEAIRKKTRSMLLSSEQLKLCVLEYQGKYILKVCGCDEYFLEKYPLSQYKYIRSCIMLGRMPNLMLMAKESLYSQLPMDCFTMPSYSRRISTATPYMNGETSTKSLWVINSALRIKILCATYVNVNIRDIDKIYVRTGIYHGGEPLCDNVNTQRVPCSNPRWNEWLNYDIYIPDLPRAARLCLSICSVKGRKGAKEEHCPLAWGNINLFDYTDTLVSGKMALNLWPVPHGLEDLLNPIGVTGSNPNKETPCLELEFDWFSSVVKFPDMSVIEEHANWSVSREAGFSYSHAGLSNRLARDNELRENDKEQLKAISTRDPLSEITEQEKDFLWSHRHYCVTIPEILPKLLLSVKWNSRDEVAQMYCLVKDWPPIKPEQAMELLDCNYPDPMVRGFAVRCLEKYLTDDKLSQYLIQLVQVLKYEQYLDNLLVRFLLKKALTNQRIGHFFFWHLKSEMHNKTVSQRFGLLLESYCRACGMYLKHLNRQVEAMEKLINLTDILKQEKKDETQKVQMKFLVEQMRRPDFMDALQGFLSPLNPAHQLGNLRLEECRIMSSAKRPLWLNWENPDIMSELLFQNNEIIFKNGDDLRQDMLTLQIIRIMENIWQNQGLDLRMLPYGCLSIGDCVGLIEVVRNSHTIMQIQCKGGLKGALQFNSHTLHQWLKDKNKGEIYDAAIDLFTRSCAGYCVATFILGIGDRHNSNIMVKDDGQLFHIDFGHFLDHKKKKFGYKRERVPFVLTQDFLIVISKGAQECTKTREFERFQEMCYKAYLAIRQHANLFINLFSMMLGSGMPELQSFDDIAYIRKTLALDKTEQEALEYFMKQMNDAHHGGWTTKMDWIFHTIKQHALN
Phosphatidylinositol 4,5-bisphosphate 3-kinase catalytic subunit gamma isoform, sequence (P48736 whole entry, canonical isoform): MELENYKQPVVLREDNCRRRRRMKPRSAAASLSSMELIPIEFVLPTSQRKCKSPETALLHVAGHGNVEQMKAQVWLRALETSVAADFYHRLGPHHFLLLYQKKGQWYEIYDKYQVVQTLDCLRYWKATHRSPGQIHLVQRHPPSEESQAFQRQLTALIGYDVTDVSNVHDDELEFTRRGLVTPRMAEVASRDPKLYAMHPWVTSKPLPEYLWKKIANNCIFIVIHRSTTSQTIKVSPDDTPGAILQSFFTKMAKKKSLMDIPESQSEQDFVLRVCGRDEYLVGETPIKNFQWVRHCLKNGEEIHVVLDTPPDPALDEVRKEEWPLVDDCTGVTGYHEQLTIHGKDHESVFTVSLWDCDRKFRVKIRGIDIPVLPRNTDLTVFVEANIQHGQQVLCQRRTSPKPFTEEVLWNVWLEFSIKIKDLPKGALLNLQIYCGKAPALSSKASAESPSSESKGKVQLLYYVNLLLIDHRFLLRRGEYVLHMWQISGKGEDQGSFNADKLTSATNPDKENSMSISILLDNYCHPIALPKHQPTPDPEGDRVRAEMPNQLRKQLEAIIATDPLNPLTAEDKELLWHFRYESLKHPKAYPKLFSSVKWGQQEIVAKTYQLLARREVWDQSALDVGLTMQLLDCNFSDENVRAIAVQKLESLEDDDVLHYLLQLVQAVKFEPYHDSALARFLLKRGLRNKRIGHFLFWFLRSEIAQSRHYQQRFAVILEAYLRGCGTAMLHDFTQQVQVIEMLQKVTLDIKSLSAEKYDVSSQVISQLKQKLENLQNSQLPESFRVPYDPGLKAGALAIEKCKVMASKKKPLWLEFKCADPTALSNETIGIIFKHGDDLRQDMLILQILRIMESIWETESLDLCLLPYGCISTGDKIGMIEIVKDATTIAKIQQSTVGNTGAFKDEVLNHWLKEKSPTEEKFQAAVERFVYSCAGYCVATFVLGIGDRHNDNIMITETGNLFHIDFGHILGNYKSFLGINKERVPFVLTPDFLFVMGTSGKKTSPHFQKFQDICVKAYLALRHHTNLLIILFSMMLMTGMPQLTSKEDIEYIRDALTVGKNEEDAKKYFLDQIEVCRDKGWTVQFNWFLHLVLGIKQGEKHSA
Phosphatidylinositol 4,5-bisphosphate 3-kinase catalytic subunit beta isoform, sequence (P42338 whole entry, canonical isoform): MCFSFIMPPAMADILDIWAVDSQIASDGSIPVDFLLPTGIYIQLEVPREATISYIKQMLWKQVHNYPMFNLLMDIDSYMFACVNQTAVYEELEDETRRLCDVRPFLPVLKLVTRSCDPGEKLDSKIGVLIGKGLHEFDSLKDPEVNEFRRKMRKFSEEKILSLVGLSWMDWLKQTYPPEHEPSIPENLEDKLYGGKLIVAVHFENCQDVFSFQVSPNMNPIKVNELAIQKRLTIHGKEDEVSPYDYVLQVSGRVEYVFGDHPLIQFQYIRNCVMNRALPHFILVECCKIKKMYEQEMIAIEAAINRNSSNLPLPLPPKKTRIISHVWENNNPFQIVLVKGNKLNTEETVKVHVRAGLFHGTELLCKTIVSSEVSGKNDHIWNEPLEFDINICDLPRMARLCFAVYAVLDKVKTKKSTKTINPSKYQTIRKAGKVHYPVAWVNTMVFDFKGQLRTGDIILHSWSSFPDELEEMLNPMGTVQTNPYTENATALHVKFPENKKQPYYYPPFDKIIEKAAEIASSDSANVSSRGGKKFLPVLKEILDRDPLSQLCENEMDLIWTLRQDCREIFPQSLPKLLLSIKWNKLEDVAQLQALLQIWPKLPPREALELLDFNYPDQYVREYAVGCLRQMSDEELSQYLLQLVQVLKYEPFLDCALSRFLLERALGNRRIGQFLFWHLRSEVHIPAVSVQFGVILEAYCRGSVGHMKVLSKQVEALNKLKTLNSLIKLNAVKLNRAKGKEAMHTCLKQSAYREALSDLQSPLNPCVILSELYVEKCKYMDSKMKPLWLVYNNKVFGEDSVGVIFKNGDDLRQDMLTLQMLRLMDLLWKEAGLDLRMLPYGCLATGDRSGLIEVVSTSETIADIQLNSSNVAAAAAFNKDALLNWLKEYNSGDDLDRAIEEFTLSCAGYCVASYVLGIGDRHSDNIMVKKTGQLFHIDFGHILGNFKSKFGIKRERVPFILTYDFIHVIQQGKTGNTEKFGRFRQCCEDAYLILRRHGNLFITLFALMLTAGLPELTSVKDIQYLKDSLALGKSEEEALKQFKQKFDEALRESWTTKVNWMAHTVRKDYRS

Structure (SMILES)	IC50 [1] [nM]	IC50 (MDA-MB-231) [nM]	IC50 (HCT-116) [nM]	IC50 [2] [nM]	IC50 (HepG2) [nM]	IC50 [3] [nM]	IC50 (HeLa) [nM]	IC50 (NCI-H1975) [nM]	IC50 [4] [nM]	IC50 [5] [nM]	IC50 (A-431) [nM]	IC50 (MCF7) [nM]	IC50 (CNE-2) [nM]	IC50 (BaF3) [nM]
NC(=O)[C@@H]1CCCN1C(=O)c1ccc(NC(=O)Nc2ccc(-c3cc(N4CCOCC4)nc(N4CCOCC4)n3)cc2)cc1		11300	8040	7.4	24200	13.8	13500					7890	1950	
NC(=O)C1CCCCN1C(=O)c1ccc(NC(=O)Nc2ccc(-c3cc(N4CCOCC4)nc(N4CCOCC4)n3)cc2)cc1 (stereo not given)		5210	2570	7.6	17700	16.5	1510					3160	2000	
CN(C)C1CCN(C(=O)c2ccc(NC(=O)Nc3ccc(-c4nc(N5CCOCC5)nc(N5C[C@@H]6OCCO[C@H]6C5)n4)cc3)cc2)CC1		1920	1300	4.8	200	10.2	7940					2260	290	
COC(=O)[C@@H]1C[C@@H](O)CN1C(=O)c1ccc(NC(=O)Nc2ccc(-c3nc(N4CCOCC4)nc(N4CCOCC4)n3)cc2)cc1		430	310	3.3	8820	28.7	1430					700	2680	
NC(=O)C1CCCCN1C(=O)c1ccc(NC(=O)Nc2ccc(-c3nc(N4CCOCC4)nc(N4CCOCC4)n3)cc2)cc1 (stereo not given)		5640	3780	3	16600	1.6	10300						1740	
NC(=O)[C@H]1CCCN1C(=O)c1ccc(NC(=O)Nc2ccc(-c3nc(N4CCOCC4)nc(N4CCOCC4)n3)cc2)cc1	7.4	7350	290	2.3		0.6	10400		3.2	13		10400	180	
CN(C)[C@@H]1C[C@@H](C(N)=O)N(C(=O)c2ccc(NC(=O)Nc3ccc(-c4nc(N5CCOCC5)nc(N5CCOCC5)n4)cc3)cc2)C1	19.4	14600	2510	2.2		7	12000	2880	14.9	29.1	2500		7890	3350
COC(=O)[C@@H]1CCCN1C(=O)c1ccc(NC(=O)Nc2ccc(-c3nc(N4CCOCC4)nc(N4CCOCC4)n3)cc2)cc1		10400	2700	4.2	10400	19	9710					9030	3990	

The next lines start with results.

IC50 [1] [nM]	IC50 (MDA-MB-231) [nM]	IC50 (HCT-116) [nM]	IC50 [2] [nM]	IC50 (HepG2) [nM]	IC50 [3] [nM]	IC50 (HeLa) [nM]	IC50 (NCI-H1975) [nM]	IC50 [4] [nM]	IC50 [5] [nM]	IC50 (A-431) [nM]	IC50 (MCF7) [nM]	Structure (SMILES)	IC50 (CNE-2) [nM]	IC50 (BaF3) [nM]
28	940	3660	2.1	460	0.9	1900	3360	5.1	25	1160		C[C@@H](NC(=O)c1ccc(NC(=O)Nc2ccc(-c3nc(N4CCOCC4)nc(N4CCOCC4)n3)cc2)cc1)C(N)=O	12600	547
	1300	2190	1	1030	1.8	460					3500	C[C@@H]1COCCN1c1nc(-c2ccc(NC(=O)Nc3ccc(C(=O)N4CCC[C@H]4C(N)=O)cc3)cc2)nc(N2CCOCC2)n1	350	
98.8	39000	4810	2.2	3190	5.5	13500	5450	11.9	16.1	6380		NC(=O)[C@@H]1CC(O)CN1C(=O)c1ccc(NC(=O)Nc2ccc(-c3nc(N4CCOCC4)nc(N4CCOCC4)n3)cc2)cc1 (stereo not given in full)	5420	2690
34			0.9		5			47.1	44.1			C[C@H](NC(=O)c1ccc(NC(=O)Nc2ccc(-c3nc(N4CCOCC4)nc(N4CCOC[C@@H]4C)n3)cc2)cc1)C(N)=O		
	900	1510	1.9	510	0.7	1390	2440			585	3810	NC(=O)C1CCN(C(=O)c2ccc(NC(=O)Nc3ccc(-c4nc(N5CCOCC5)nc(N5CCOCC5)n4)cc3)cc2)CC1	4170	292
	250	740	2.1	130	1.6	9690	601			242	2290	NC(=O)C1CCCN(C(=O)c2ccc(NC(=O)Nc3ccc(-c4nc(N5CCOCC5)nc(N5CCOCC5)n4)cc3)cc2)C1 (stereo not given)	10200	294
